Results on 19 compounds are retold here after patent publication US10259810B2, “N-sulfonylated pyrazolo[3,4-b]pyridin-6-carboxamides and method of use” (AbbVie S.à.r.l., priority 2015, dated 2019).

Experiment [1] addresses T1, ΔF508-CFTR (Homo sapiens, UniProt P13569, DEL508-508).
T1 construct: host or cells: CFBE41o-, doxycycline-inducible
Kind of experiment: CFTR cell surface levels using HRP-tagged ΔF508-CFTR expressing CFBE cells, in the presence of a co-corrector. Type of experiment: cell-based. The following applies: HRP-tagged ΔF508-CFTR CFBE cells, in the presence of 3 μM co-corrector; for EC50: read-out: EC50. Summed up: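 Chemiluminescent read-out of surface HRP (15 min, dark) after PBS washes. Activity is normalized as 100×(sample−DMSO)/(3 μM co-corrector alone−DMSO).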

The target in experiment [2] is T1, ΔF508-CFTR. As to the kind of experiment: CFTR cell surface levels using HRP-tagged ΔF508-CFTR expressing CFBE cells, intrinsic corrector capacity. Type of experiment: cell-based. More on the design: % Activation: concentration or dose not given beside the values. The following applies: HRP-tagged ΔF508-CFTR expressing CFBE41o- cells, compound alone (intrinsic corrector capacity), 20 hours at 33° C.; for EC50: read-out: EC50. An outline of the steps:
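Surface ΔF508-CFTR was measured as HRP chemiluminescence from an extracellular-loop-4 tag, expressed as percent activity between DMSO and a […] corrector control.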

T1 sequence (P13569 with tags, fused parts or gaps DEL508-508): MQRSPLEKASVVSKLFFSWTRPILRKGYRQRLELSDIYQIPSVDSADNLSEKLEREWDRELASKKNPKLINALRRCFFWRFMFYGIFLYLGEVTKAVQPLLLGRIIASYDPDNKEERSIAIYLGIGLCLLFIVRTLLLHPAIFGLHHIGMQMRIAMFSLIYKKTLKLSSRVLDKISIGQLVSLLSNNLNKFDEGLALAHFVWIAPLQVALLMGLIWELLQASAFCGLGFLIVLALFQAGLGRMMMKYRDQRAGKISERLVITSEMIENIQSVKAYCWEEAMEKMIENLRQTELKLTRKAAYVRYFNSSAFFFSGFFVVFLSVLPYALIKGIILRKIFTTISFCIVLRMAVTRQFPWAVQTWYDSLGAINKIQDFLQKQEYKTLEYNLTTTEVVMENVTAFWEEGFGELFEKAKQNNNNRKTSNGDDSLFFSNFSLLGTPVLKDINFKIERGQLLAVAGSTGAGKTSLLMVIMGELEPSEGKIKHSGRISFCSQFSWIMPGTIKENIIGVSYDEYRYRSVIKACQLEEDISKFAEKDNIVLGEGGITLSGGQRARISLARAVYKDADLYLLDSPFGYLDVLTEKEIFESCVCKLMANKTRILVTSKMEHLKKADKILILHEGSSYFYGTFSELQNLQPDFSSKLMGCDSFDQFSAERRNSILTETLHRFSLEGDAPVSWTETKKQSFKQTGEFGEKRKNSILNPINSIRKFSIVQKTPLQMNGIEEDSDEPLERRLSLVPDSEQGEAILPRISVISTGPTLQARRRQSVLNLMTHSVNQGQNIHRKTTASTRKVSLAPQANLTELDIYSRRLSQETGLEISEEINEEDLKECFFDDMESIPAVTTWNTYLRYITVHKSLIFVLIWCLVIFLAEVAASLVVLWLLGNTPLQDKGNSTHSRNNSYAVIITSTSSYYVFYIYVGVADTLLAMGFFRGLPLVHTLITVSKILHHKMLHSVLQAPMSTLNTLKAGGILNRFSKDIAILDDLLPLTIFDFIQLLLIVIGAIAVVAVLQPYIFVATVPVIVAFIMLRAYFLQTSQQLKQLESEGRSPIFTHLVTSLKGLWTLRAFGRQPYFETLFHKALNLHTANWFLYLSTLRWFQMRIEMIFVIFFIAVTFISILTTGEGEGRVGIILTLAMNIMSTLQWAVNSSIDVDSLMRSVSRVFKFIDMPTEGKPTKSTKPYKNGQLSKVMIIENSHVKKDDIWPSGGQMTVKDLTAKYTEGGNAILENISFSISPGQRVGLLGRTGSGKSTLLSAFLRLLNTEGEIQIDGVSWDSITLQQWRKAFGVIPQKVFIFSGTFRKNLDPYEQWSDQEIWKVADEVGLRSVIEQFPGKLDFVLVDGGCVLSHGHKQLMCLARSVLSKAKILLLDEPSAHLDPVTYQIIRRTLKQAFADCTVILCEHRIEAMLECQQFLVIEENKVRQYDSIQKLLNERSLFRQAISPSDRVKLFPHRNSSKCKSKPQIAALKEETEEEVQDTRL

One may read the EC50 as the concentration that produces a half-maximal response. Consider `COCCN(C)c1cc(C(=O)NS(C)(=O)=O)nc2c1c(C(C)C)nn2-c1cccc(C)c1` [Compound 170, N-(methanesulfonyl)-4-[(2-methoxyethyl)(methyl)amino]-1-(3-methylphenyl)-3-(propan-2-yl)-1H-pyrazolo[3,4-b]pyridine-6-carboxamide], for which the “% Activation” value in experiment [1] was 425.6%; in experiment [2], 213.5%. In addition, the values for the EC50 in experiment [1] and in experiment [2] were 0.722 µM and 0.975 µM, respectively.
The like results for `Cc1cccc(-n2nc(C(C)C)c3c(N4CCC5(CCOCC5)C4)cc(C(=O)NS(C)(=O)=O)nc32)c1` [Compound 171, N-(methanesulfonyl)-1-(3-methylphenyl)-4-(8-oxa-2-azaspiro[4.5]decan-2-yl)-3-(propan-2-yl)-1H-pyrazolo[3,4-b]pyridine-6-carboxamide] were, in that order, 289.23%, 143.4%, 0.312 µM and 0.787 µM.
The like results for `CCCCOC1CCN(c2cc(C(=O)NS(C)(=O)=O)nc3c2c(C(C)C)nn3-c2ccc(F)cc2)CC1` [Compound 172, 4-(4-butoxypiperidin-1-yl)-1-(4-fluorophenyl)-N-(methanesulfonyl)-3-(propan-2-yl)-1H-pyrazolo[3,4-b]pyridine-6-carboxamide] were, in that order, 462.4%, 280.03%, 0.207 µM and 0.33 µM.
The like results for `COC1(C)CCN(c2cc(C(=O)NS(C)(=O)=O)nc3c2c(C(C)C)nn3-c2ccc(F)cc2)CC1` [Compound 173, 1-(4-fluorophenyl)-N-(methanesulfonyl)-4-(4-methoxy-4-methylpiperidin-1-yl)-3-(propan-2-yl)-1H-pyrazolo[3,4-b]pyridine-6-carboxamide] were, in that order, 183.2%, 51.395%, 0.433 µM and 0.412 µM.
With `COC1CCN(c2cc(C(=O)NS(=O)(=O)CCNC(=O)c3ccccc3C(=O)O)nc3c2c(C2CCC2)nn3-c2ccccc2)CC1` [Compound 174, 2-[(2-{[3-cyclobutyl-4-(4-methoxypiperidin-1-yl)-1-phenyl-1H-pyrazolo[3,4-b]pyridine-6-carbonyl]sulfamoyl}ethyl)carbamoyl]benzoic acid], in experiment [1], the “% Activation” value amounted to 545% and the concentration giving a half-maximal response (EC50) was determined as 0.468 µM. Further, in experiment [2], the “% Activation” value is given as 347.9% and the EC50 turned out to be 0.754 µM.
Taken in the same sequence, the figures for `CC(C)COC1CCN(c2cc(C(=O)NS(C)(=O)=O)nc3c2c(C(C)C)nn3-c2ccc(F)cc2)CC1` [Compound 175, 1-(4-fluorophenyl)-N-(methanesulfonyl)-4-[4-(2-methylpropoxy)piperidin-1-yl]-3-(propan-2-yl)-1H-pyrazolo[3,4-b]pyridine-6-carboxamide] were 461.1%, 0.2 µM, 270.5% and 0.337 µM.
`COC1CCN(c2cc(C(=O)NS(=O)(=O)CC(F)(F)F)nc3c2c(C2CCC2)nn3-c2ccccc2)CC1` [Compound 176, 3-cyclobutyl-4-(4-methoxypiperidin-1-yl)-1-phenyl-N-(2,2,2-trifluoroethanesulfonyl)-1H-pyrazolo[3,4-b]pyridine-6-carboxamide]: the “% Activation” value is on record as 390.43% in experiment [1] and 190.4% in experiment [2]. Also, the EC50 turned out to be 0.209 µM in experiment [1] and 0.337 µM in experiment [2].
Taken in the same sequence, the figures for `CC(C)c1nn(-c2ccc(F)cc2)c2nc(C(=O)NS(C)(=O)=O)cc(N3CCCC(C(F)F)C3)c12` (stereo not shown) [Compound 178, 4-[3-(difluoromethyl)piperidin-1-yl]-1-(4-fluorophenyl)-N-(methanesulfonyl)-3-(propan-2-yl)-1H-pyrazolo[3,4-b]pyridine-6-carboxamide] were 381.73%, 202.8%, 0.232 µM and 0.347 µM.
The like results for `CC(C)c1nn(-c2ccc(F)cc2)c2nc(C(=O)NS(C)(=O)=O)cc(N3CC4(CCCOC4)C3)c12` [Compound 179, 1-(4-fluorophenyl)-N-(methanesulfonyl)-4-(6-oxa-2-azaspiro[3.5]nonan-2-yl)-3-(propan-2-yl)-1H-pyrazolo[3,4-b]pyridine-6-carboxamide] were, in that order, 248.85%, 89.165%, 0.406 µM and 0.879 µM.
Taken in the same sequence, the figures for `CC(C)c1nn(-c2ccc(F)cc2)c2nc(C(=O)NS(C)(=O)=O)cc(N3CCC4(CCCO4)CC3)c12` [Compound 180, 1-(4-fluorophenyl)-N-(methanesulfonyl)-4-(1-oxa-8-azaspiro[4.5]decan-8-yl)-3-(propan-2-yl)-1H-pyrazolo[3,4-b]pyridine-6-carboxamide] were 290.53%, 129.5%, 0.3 µM and 0.57 µM.
Regarding `CS(=O)(=O)NC(=O)c1cc(OCC2CCCCC2)c2c(C3CCC3)nn(-c3ccccc3)c2n1` [Compound 181, 3-cyclobutyl-4-(cyclohexylmethoxy)-N-(methanesulfonyl)-1-phenyl-1H-pyrazolo[3,4-b]pyridine-6-carboxamide], in experiment [1], the “% Activation” value was 357.93% and the concentration giving a half-maximal response (EC50) is 0.435 µM. Also, in experiment [2], the “% Activation” value is 137.73% and the EC50 was 0.398 µM.
The like results for `COCCC1CCN(c2cc(C(=O)NS(C)(=O)=O)nc3c2c(C2CCC2)nn3-c2ccccc2)CC1` [Compound 183, 3-cyclobutyl-N-(methanesulfonyl)-4-[4-(2-methoxyethyl)piperidin-1-yl]-1-phenyl-1H-pyrazolo[3,4-b]pyridine-6-carboxamide] were, in that order, 498.57%, 0.214 µM, 302% and 0.389 µM.
Taken in the same sequence, the figures for `CS(=O)(=O)NC(=O)c1cc(N2CC3(CCCC3)C2)c2c(C3CCC3)nn(-c3ccccc3)c2n1` [Compound 184, 4-(2-azaspiro[3.4]octan-2-yl)-3-cyclobutyl-N-(methanesulfonyl)-1-phenyl-1H-pyrazolo[3,4-b]pyridine-6-carboxamide] were 282.7%, 0.574 µM, 95.405% and 0.719 µM.
The like results for `CS(=O)(=O)NC(=O)c1cc(N2CC3CC3C2)c2c(C3CCC3)nn(-c3ccccc3)c2n1` (stereo not shown) [Compound 186, 4-(3-azabicyclo[3.1.0]hexan-3-yl)-3-cyclobutyl-N-(methanesulfonyl)-1-phenyl-1H-pyrazolo[3,4-b]pyridine-6-carboxamide] were, in that order, 381.87%, 0.531 µM, 209.57% and 0.616 µM.
On to `CS(=O)(=O)NC(=O)c1cc(-c2ccc(N3CCC(C#N)CC3)nc2)c2c(C3CCC3)nn(-c3ccnc(N4CCCC4)c3)c2n1` [Compound 189, 4-[6-(4-cyanopiperidin-1-yl)pyridin-3-yl]-3-cyclobutyl-N-(methanesulfonyl)-1-[2-(pyrrolidin-1-yl)pyridin-4-yl]-1H-pyrazolo[3,4-b]pyridine-6-carboxamide], for which, in experiment [1], the “% Activation” value is 409.6% and the EC50 is 0.236 µM. Further, in experiment [2], the “% Activation” value came to 236.2% and the half-maximal effective concentration (EC50) came to 0.421 µM.
For the compound `CS(=O)(=O)NC(=O)c1cc(N2CC3(CCCCC3)C2)c2c(C3CCC3)nn(-c3ccccc3)c2n1` [Compound 192, 4-(2-azaspiro[3.5]nonan-2-yl)-3-cyclobutyl-N-(methanesulfonyl)-1-phenyl-1H-pyrazolo[3,4-b]pyridine-6-carboxamide], in experiment [1], the “% Activation” value is on record as 254.6% and the EC50 was 0.866 µM. In experiment [2], the “% Activation” value stood at 81.49% and the concentration giving a half-maximal response (EC50) stood at 1.14 µM.
Taken in the same sequence, the figures for `CO[C@H]1C[C@@H](c2nn(-c3ccccc3)c3nc(C(=O)NS(C)(=O)=O)cc(-c4ccc(N5CCC(C#N)CC5)nc4)c32)C1` [Compound 194, 4-[6-(4-cyanopiperidin-1-yl)pyridin-3-yl]-N-(methanesulfonyl)-3-(cis-3-methoxycyclobutyl)-1-phenyl-1H-pyrazolo[3,4-b]pyridine-6-carboxamide] were 427.45%, 0.371 µM, 213.75% and 0.745 µM.
For the compound `CS(=O)(=O)NC(=O)c1cc(-c2ccc(N3CCC(C#N)CC3)nc2)c2c(C3CC(F)(F)C3)nn(-c3ccccc3)c2n1` [Compound 195, 4-[6-(4-cyanopiperidin-1-yl)pyridin-3-yl]-3-(3,3-difluorocyclobutyl)-N-(methanesulfonyl)-1-phenyl-1H-pyrazolo[3,4-b]pyridine-6-carboxamide], in experiment [1], the “% Activation” value was determined as 387.47% and the 50% effective concentration (EC50) was found to be 0.192 µM. In experiment [2], the “% Activation” value is 225.2% and the 50% effective concentration (EC50) stood at 0.37 µM.
Taken in the same sequence, the figures for `CC1(C)CC(c2nn(-c3ccccc3)c3nc(C(=O)NS(C)(=O)=O)cc(-c4ccc(N5CCC(C#N)CC5)nc4)c23)C1` [Compound 196, 4-[6-(4-cyanopiperidin-1-yl)pyridin-3-yl]-3-(3,3-dimethylcyclobutyl)-N-(methanesulfonyl)-1-phenyl-1H-pyrazolo[3,4-b]pyridine-6-carboxamide] were 387.1%, 0.231 µM, 188.47% and 0.339 µM.
